ChEMBL document CHEMBL1151010, “A case study of combinatorial libraries: Endothelin receptor antagonist hexapeptides” (Bioorg Med Chem Lett, 1995)
Square brackets hold non-standard residues; d marks the D form. Peptide text beside a SMILES is read from it. dGly(5-dibenzosuberyl) = N[C@@H](C(=O)O)C1c2ccccc2CCc2ccccc21

The compounds below were run against T1, Endothelin-1 receptor (Sus scrofa) (UniProt Q29010) (assay: Inhibition of endothelin (ET-A) binding to porcine heart membranes). Details: Membrane, concentration not given here.
T1 sequence (whole entry): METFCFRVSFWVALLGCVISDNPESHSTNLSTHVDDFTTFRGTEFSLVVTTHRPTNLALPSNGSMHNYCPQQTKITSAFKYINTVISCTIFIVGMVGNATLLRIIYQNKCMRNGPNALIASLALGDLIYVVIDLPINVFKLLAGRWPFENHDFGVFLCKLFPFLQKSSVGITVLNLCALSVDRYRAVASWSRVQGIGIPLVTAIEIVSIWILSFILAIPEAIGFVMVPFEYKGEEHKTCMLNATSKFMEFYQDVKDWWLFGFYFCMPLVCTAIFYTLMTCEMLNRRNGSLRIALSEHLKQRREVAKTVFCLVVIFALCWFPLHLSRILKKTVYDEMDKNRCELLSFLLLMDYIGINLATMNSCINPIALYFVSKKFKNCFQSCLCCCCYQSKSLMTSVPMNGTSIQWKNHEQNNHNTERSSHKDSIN
Design: concentration or dose not given beside the values
`CC[C@H](C)[C@H](NC(=O)[C@H](CC(=O)O)NC(=O)[C@H](CC(=O)O)NC(=O)[C@H](CC(C)C)NC(=O)[C@H](NC(C)=O)C1c2ccccc2CCc2ccccc21)C(=O)N[C@@H](Cc1c[nH]c2ccccc12)C(=O)O` was tested, and the inhibition was 0%. For `CC[C@H](C)[C@H](NC(=O)[C@@H]1CCCN1C(=O)[C@H](CC(=O)O)NC(=O)[C@H](CC(C)C)NC(=O)[C@H](NC(C)=O)C1c2ccccc2CCc2ccccc21)C(=O)N[C@@H](Cc1c[nH]c2ccccc12)C(=O)O`, the inhibition was 0%. Compound `CC[C@H](C)[C@H](NC(=O)[C@H](CC(=O)O)NC(=O)[C@H](CC(C)C)NC(=O)[C@H](NC(C)=O)C1c2ccccc2CCc2ccccc21)C(=O)N[C@H](C(=O)N[C@@H](Cc1c[nH]c2ccccc12)C(=O)O)[C@@H](C)CC` (Ac-[dGly(5-dibenzosuberyl)]LDIIW-OH) has an inhibition of 62%. With `CC[C@H](C)[C@H](NC(=O)[C@H](CCCCN)NC(=O)[C@H](CC(=O)O)NC(=O)[C@H](CC(C)C)NC(=O)[C@H](NC(C)=O)C1c2ccccc2CCc2ccccc21)C(=O)N[C@@H](Cc1c[nH]c2ccccc12)C(=O)O` the inhibition was 0%. `CC[C@H](C)[C@H](NC(=O)[C@H](CCC(N)=O)NC(=O)[C@H](CC(=O)O)NC(=O)[C@H](CC(C)C)NC(=O)[C@H](NC(C)=O)C1c2ccccc2CCc2ccccc21)C(=O)N[C@@H](Cc1c[nH]c2ccccc12)C(=O)O` gave an inhibition of 12%. With `CC[C@H](C)[C@H](NC(=O)[C@H](Cc1ccc(O)cc1)NC(=O)[C@H](CC(=O)O)NC(=O)[C@H](CC(C)C)NC(=O)[C@H](NC(C)=O)C1c2ccccc2CCc2ccccc21)C(=O)N[C@@H](Cc1c[nH]c2ccccc12)C(=O)O` the inhibition was 9%. `CC[C@H](C)[C@H](NC(=O)[C@H](Cc1ccccc1)NC(=O)[C@H](CC(=O)O)NC(=O)[C@H](CC(C)C)NC(=O)[C@H](NC(C)=O)C1c2ccccc2CCc2ccccc21)C(=O)N[C@@H](Cc1c[nH]c2ccccc12)C(=O)O` (Ac-[dGly(5-dibenzosuberyl)]LDFIW-OH) was tested, and the inhibition was 12%. Work on `CC[C@H](C)[C@H](NC(=O)[C@H](CCCN=C(N)N)NC(=O)[C@H](CC(=O)O)NC(=O)[C@H](CC(C)C)NC(=O)[C@H](NC(C)=O)C1c2ccccc2CCc2ccccc21)C(=O)N[C@@H](Cc1c[nH]c2ccccc12)C(=O)O` yielded an inhibition of 0%. In the case of `CC[C@H](C)[C@H](NC(=O)[C@H](CO)NC(=O)[C@H](CC(=O)O)NC(=O)[C@H](CC(C)C)NC(=O)[C@H](NC(C)=O)C1c2ccccc2CCc2ccccc21)C(=O)N[C@@H](Cc1c[nH]c2ccccc12)C(=O)O`, the inhibition is reported as 0%. With `CC[C@H](C)[C@H](NC(=O)[C@H](CC(C)C)NC(=O)[C@H](CC(=O)O)NC(=O)[C@H](CC(C)C)NC(=O)[C@H](NC(C)=O)C1c2ccccc2CCc2ccccc21)C(=O)N[C@@H](Cc1c[nH]c2ccccc12)C(=O)O` the inhibition was 9%. `CC[C@H](C)[C@H](NC(=O)[C@H](CCC(=O)O)NC(=O)[C@H](CC(=O)O)NC(=O)[C@H](CC(C)C)NC(=O)[C@H](NC(C)=O)C1c2ccccc2CCc2ccccc21)C(=O)N[C@@H](Cc1c[nH]c2ccccc12)C(=O)O` was tested, and the inhibition was 0%. Compound `CC[C@H](C)[C@H](NC(=O)[C@H](Cc1c[nH]c2ccccc12)NC(=O)[C@H](CC(=O)O)NC(=O)[C@H](CC(C)C)NC(=O)[C@H](NC(C)=O)C1c2ccccc2CCc2ccccc21)C(=O)N[C@@H](Cc1c[nH]c2ccccc12)C(=O)O` has an inhibition of 0%. `CC[C@H](C)[C@H](NC(=O)[C@H](Cc1c[nH]cn1)NC(=O)[C@H](CC(=O)O)NC(=O)[C@H](CC(C)C)NC(=O)[C@H](NC(C)=O)C1c2ccccc2CCc2ccccc21)C(=O)N[C@@H](Cc1c[nH]c2ccccc12)C(=O)O` showed an inhibition of 12%.

Each compound was assayed against T2, Endothelin-1 receptor (Sus scrofa, UniProt Q29010) (assay: Antagonist activity against ET-A from porcine heart membranes). Details: not given.
T2 sequence (Q29010 whole entry): T1 sequence (whole entry)
Assay type: functional, tissue-based
With `CC[C@H](C)[C@H](NC(=O)[C@@H](NC(=O)[C@H](CC(=O)O)NC(=O)[C@H](CC(N)=O)NC(=O)[C@H](NC(C)=O)C1c2ccccc2CCc2ccccc21)C(C)C)C(=O)N[C@@H](Cc1c[nH]c2ccccc12)C(=O)O` the IC50 was 4 nM. `CC[C@H](C)[C@H](NC(=O)[C@H](CC(=O)O)NC(=O)[C@H](CO)NC(=O)[C@H](NC(C)=O)C1c2ccccc2CCc2ccccc21)C(=O)N[C@H](C(=O)N[C@@H](Cc1c[nH]c2ccccc12)C(=O)O)[C@@H](C)CC` gave an IC50 of 6 nM. `CC[C@H](C)[C@H](NC(=O)[C@H](CC(=O)O)NC(=O)[C@H](CCC(N)=O)NC(=O)[C@H](NC(C)=O)C1c2ccccc2CCc2ccccc21)C(=O)N[C@H](C(=O)N[C@@H](Cc1c[nH]c2ccccc12)C(=O)O)[C@@H](C)CC` was tested, and the IC50 was 2 nM. `CC[C@H](C)[C@H](NC(=O)[C@H](CC(=O)O)NC(=O)[C@H](CCC(=O)O)NC(=O)[C@H](NC(C)=O)C1c2ccccc2CCc2ccccc21)C(=O)N[C@H](C(=O)N[C@@H](Cc1c[nH]c2ccccc12)C(=O)O)[C@@H](C)CC` (Ac-[dGly(5-dibenzosuberyl)]EDIIW-OH) showed an IC50 of 11 nM. `CC[C@H](C)[C@H](NC(=O)[C@H](CC(=O)O)NC(=O)[C@@H](NC(=O)[C@H](NC(C)=O)C1c2ccccc2CCc2ccccc21)[C@@H](C)CC)C(=O)N[C@H](C(=O)N[C@@H](Cc1c[nH]c2ccccc12)C(=O)O)[C@@H](C)CC` showed an IC50 of 21 nM. For `CC[C@H](C)[C@H](NC(=O)[C@H](CC(=O)O)NC(=O)[C@H](CCCN=C(N)N)NC(=O)[C@H](NC(C)=O)C1c2ccccc2CCc2ccccc21)C(=O)N[C@H](C(=O)N[C@@H](Cc1c[nH]c2ccccc12)C(=O)O)[C@@H](C)CC` (Ac-[dGly(5-dibenzosuberyl)]RDIIW-OH), the IC50 was 3 nM. `CC[C@H](C)[C@H](NC(=O)[C@H](CC(=O)O)NC(=O)[C@@H](NC(=O)[C@H](NC(C)=O)C1c2ccccc2CCc2ccccc21)C(C)C)C(=O)N[C@H](C(=O)N[C@@H](Cc1c[nH]c2ccccc12)C(=O)O)[C@@H](C)CC` showed an IC50 of 12 nM. Work on `CC[C@H](C)[C@H](NC(=O)[C@H](CC(=O)O)NC(=O)[C@H](CC(=O)O)NC(=O)[C@H](NC(C)=O)C1c2ccccc2CCc2ccccc21)C(=O)N[C@H](C(=O)N[C@@H](Cc1c[nH]c2ccccc12)C(=O)O)[C@@H](C)CC` yielded an IC50 of 11 nM. In the case of `CC[C@H](C)[C@H](NC(=O)[C@H](CC(=O)O)NC(=O)[C@H](Cc1ccc(O)cc1)NC(=O)[C@H](NC(C)=O)C1c2ccccc2CCc2ccccc21)C(=O)N[C@H](C(=O)N[C@@H](Cc1c[nH]c2ccccc12)C(=O)O)[C@@H](C)CC`, the IC50 is reported as 11 nM. `CC[C@H](C)[C@H](NC(=O)[C@H](CC(=O)O)NC(=O)[C@@H]1CCCN1C(=O)[C@H](NC(C)=O)C1c2ccccc2CCc2ccccc21)C(=O)N[C@H](C(=O)N[C@@H](Cc1c[nH]c2ccccc12)C(=O)O)[C@@H](C)CC` showed an IC50 of 6 nM. With `CC[C@H](C)[C@H](NC(=O)[C@H](CC(=O)O)NC(=O)CNC(=O)[C@H](NC(C)=O)C1c2ccccc2CCc2ccccc21)C(=O)N[C@H](C(=O)N[C@@H](Cc1c[nH]c2ccccc12)C(=O)O)[C@@H](C)CC` the IC50 was 19 nM. `CC[C@H](C)[C@H](NC(=O)[C@H](CC(=O)O)NC(=O)[C@H](Cc1ccccc1)NC(=O)[C@H](NC(C)=O)C1c2ccccc2CCc2ccccc21)C(=O)N[C@H](C(=O)N[C@@H](Cc1c[nH]c2ccccc12)C(=O)O)[C@@H](C)CC` gave an IC50 of 24 nM. For `CC[C@H](C)[C@H](NC(=O)[C@H](CC(=O)O)NC(=O)[C@@H](NC(=O)[C@H](NC(C)=O)C1c2ccccc2CCc2ccccc21)[C@@H](C)O)C(=O)N[C@H](C(=O)N[C@@H](Cc1c[nH]c2ccccc12)C(=O)O)[C@@H](C)CC`, the IC50 was 4 nM. Compound `CC[C@H](C)[C@H](NC(=O)[C@@H](NC(=O)[C@H](CC(=O)O)NC(=O)[C@H](CC(C)C)NC(=O)[C@H](NC(C)=O)C1c2ccccc2CCc2ccccc21)C(C)(C)C)C(=O)N[C@@H](Cc1c[nH]c2ccccc12)C(=O)O` has an IC50 of 5 nM. For `CC[C@H](C)[C@H](NC(=O)[C@H](CC(=O)O)NC(=O)[C@H](CCSC)NC(=O)[C@H](NC(C)=O)C1c2ccccc2CCc2ccccc21)C(=O)N[C@H](C(=O)N[C@@H](Cc1c[nH]c2ccccc12)C(=O)O)[C@@H](C)CC`, the IC50 was 8 nM. `CC[C@H](C)[C@H](NC(=O)[C@H](CC(=O)O)NC(=O)[C@H](C)NC(=O)[C@H](NC(C)=O)C1c2ccccc2CCc2ccccc21)C(=O)N[C@H](C(=O)N[C@@H](Cc1c[nH]c2ccccc12)C(=O)O)[C@@H](C)CC` gave an IC50 of 6 nM. For `CC[C@H](C)[C@H](NC(=O)[C@H](CC(=O)O)NC(=O)[C@H](Cc1c[nH]c2ccccc12)NC(=O)[C@H](NC(C)=O)C1c2ccccc2CCc2ccccc21)C(=O)N[C@H](C(=O)N[C@@H](Cc1c[nH]c2ccccc12)C(=O)O)[C@@H](C)CC`, the IC50 was 11 nM. Compound `CC[C@H](C)[C@H](NC(=O)[C@@H](NC(=O)[C@H](CC(=O)O)NC(=O)[C@H](CCC(N)=O)NC(=O)[C@H](NC(C)=O)C1c2ccccc2CCc2ccccc21)C(C)(C)C)C(=O)N[C@@H](Cc1c[nH]c2ccccc12)C(=O)O` has an IC50 of 5 nM. With `CC[C@H](C)[C@H](NC(=O)[C@H](CC(=O)O)NC(=O)[C@H](CC(N)=O)NC(=O)[C@H](NC(C)=O)C1c2ccccc2CCc2ccccc21)C(=O)N[C@H](C(=O)N[C@@H](Cc1c[nH]c2ccccc12)C(=O)O)[C@@H](C)CC` the IC50 was 3 nM. With `CC[C@H](C)[C@H](NC(=O)[C@H](CC(=O)O)NC(=O)[C@H](Cc1c[nH]cn1)NC(=O)[C@H](NC(C)=O)C1c2ccccc2CCc2ccccc21)C(=O)N[C@H](C(=O)N[C@@H](Cc1c[nH]c2ccccc12)C(=O)O)[C@@H](C)CC` the IC50 was 50 nM. For `CC[C@H](C)[C@H](NC(=O)[C@H](CC(=O)O)NC(=O)[C@H](CCCCN)NC(=O)[C@H](NC(C)=O)C1c2ccccc2CCc2ccccc21)C(=O)N[C@H](C(=O)N[C@@H](Cc1c[nH]c2ccccc12)C(=O)O)[C@@H](C)CC`, the IC50 was 4 nM. For `CC[C@H](C)[C@H](NC(=O)[C@@H](NC(=O)[C@H](CC(=O)O)NC(=O)[C@H](CCC(N)=O)NC(=O)[C@H](NC(C)=O)C1c2ccccc2CCc2ccccc21)C(C)C)C(=O)N[C@@H](Cc1c[nH]c2ccccc12)C(=O)O`, the IC50 was 1.7 nM.
